Where two headings read alike, the source gives them in different places.
Legend:
METTL3/METTL14 = METTL3/METTL14 (Homo sapiens, UniProt Q86U44); assay: METTL3-14 Standard Enzyme Assay (METTL3 biochemical assay)
Procedure: Assays were performed in a 25 μl-volume in 384-well V-bottom polypropylene microplates (Greiner Bio-One, cat. No. 781280) at ambient temperature. Optimized 1× assay buffer was 20 mM HEPES pH 7.5, 50 mM KCl, 250 μM MgCl2, 1 mM DTT, 0.01% Tween, 0.01% BSG, 0.004 U/μl RNAseOUT (cat. No. 10777019, ThermoFisher Scientific, Waltham, Mass.). For compound screening METTL3/METTL14 (final concentration, f.c.=2.5 nM) was added using a Multidrop Combi (ThermoFisher Scientific, Waltham, Mass.) and preincubated for 5 min. Reactions were started by adding 3′ biotinylated RNA ([…]-biotin) (f.c.=100 nM) and 3H-SAM (f.c.=100 nM) substrates. Reactions proceeded for 30 minutes and were quenched with excess non-radioactive SAM (f.c.=15 μM). The reactions were then transferred to streptavidin-coated flashplates and incubated for 2 hours at 25° C. Following two washing cycles with 0.1% Tween-20, the plates were sealed and read on a TopCount (PerkinElmer, Waltham, Mass.) plate-based scintillation counter. For determination of kinetic parameters, reaction times were optimized so that measurements were taken during the initial velocity phase of the reaction.

METTL1/WDR4 = METTL1/WDR4 (Homo sapiens, UniProt Q9UBP6); assay: METTL1 Assay (METTL1 biochemical assay)
Procedure: Assays were performed in a 25 μl-volume in 384-well V-bottom polypropylene microplates (Greiner Bio-One, cat. No. 781280) at ambient temperature. Optimized 1× assay buffer was 20 mM HEPES pH 7.5, 50 mM KCl, 250 μM MgCl2, 1 mM DTT, 0.01% Tween, 0.01% BSG, 0.004 U/μl RNAseOUT (cat. No. 10777019, ThermoFisher Scientific, Waltham, Mass.). For compound screening METTL1/WDR4 (final concentration, f.c.=6.25 nM) was added using a Multidrop Combi (ThermoFisher Scientific, Waltham, Mass.) and preincubated for 5 min. Reactions were started by adding 3′ biotinylated RNA ([…]-biotin) (f.c.=25 nM) and 3H-SAM (f.c.=60 nM) substrates. Reactions proceeded for 20 minutes and were quenched with excess non-radioactive SAM (f.c.=15 μM). The reactions were then transferred to streptavidin-coated flashplates and incubated for 2 hours at 25° C. Following two washing cycles with 0.1% Tween-20, the plates were sealed and read on a TopCount (PerkinElmer, Waltham, Mass.) plate-based scintillation counter. For determination of kinetic parameters, reaction times were optimized so that measurements were taken during the initial velocity phase of the reaction.

PRMT5-MEP50 = PRMT5-MEP50 (Homo sapiens, UniProt O14744); assay: PRMT5 Assay (PRMT5 biochemical assay)
Procedure: Assays were performed in a 25 μl-volume in 384-well V-bottom polypropylene microplates (Greiner Bio-One, cat. No. 781280) at ambient temperature. Optimized 1× assay buffer was 20 mM Tris-HCl pH 8.0, 1 mM DTT, […]. For compound screening PRMT5-MEP50 (final concentration, f.c.=2.5 nM) was added using a Multidrop Combi (ThermoFisher Scientific, Waltham, Mass.) and preincubated for 5 min. Reactions were started by adding 3′ biotinylated histone H4 peptide acetylated on serine 1 (Ac-[…]-Biotin) (f.c.=100 nM) and 3H-SAM (f.c.=250 nM) substrates. Reactions proceeded for 60 minutes and were quenched with excess non-radioactive SAM (f.c.=15 μM). The reactions were then transferred to streptavidin-coated flashplates and incubated for 2 hours at 25° C. Following two washing cycles with 0.1% Tween-20, the plates were sealed and read on a TopCount (PerkinElmer, Waltham, Mass.) plate-based scintillation counter. For determination of kinetic parameters, reaction times were optimized so that measurements were taken during the initial velocity phase of the reaction.

[1] = METTL3 biochemical assay; read-out: METTL3 IC50
[2] = read-out: METTL1 IC50; METTL1 biochemical assay
[3] = PRMT5 biochemical assay; read-out: PRMT5 IC50
[4] = METTL1 biochemical assay; read-out: METTL1 IC50
[5] = read-out: METTL3 IC50; METTL3 biochemical assay
[6] = read-out: PRMT5 IC50; PRMT5 biochemical assay

METTL1/WDR4, sequence (Q9UBP6 whole entry, species assumed): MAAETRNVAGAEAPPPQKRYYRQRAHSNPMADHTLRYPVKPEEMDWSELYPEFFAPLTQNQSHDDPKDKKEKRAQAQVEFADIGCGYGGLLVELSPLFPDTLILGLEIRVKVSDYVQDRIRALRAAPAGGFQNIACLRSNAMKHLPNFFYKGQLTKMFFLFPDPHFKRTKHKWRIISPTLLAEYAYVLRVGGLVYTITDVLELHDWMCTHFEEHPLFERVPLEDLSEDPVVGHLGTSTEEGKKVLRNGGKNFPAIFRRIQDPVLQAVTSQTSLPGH
METTL1/WDR4, sequence (P57081 whole entry partner, species assumed): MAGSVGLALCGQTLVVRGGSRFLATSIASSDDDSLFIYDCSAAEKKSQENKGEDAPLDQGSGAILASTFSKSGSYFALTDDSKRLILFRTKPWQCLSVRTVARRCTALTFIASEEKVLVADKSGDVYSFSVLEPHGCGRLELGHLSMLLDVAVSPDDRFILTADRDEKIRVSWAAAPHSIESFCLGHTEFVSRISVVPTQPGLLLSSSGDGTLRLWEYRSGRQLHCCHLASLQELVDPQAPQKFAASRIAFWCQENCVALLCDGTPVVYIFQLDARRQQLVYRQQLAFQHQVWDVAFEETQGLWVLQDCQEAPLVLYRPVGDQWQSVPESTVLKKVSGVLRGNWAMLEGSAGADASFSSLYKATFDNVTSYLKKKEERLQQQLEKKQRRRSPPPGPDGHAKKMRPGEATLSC
PRMT5-MEP50, sequence (O14744 whole entry): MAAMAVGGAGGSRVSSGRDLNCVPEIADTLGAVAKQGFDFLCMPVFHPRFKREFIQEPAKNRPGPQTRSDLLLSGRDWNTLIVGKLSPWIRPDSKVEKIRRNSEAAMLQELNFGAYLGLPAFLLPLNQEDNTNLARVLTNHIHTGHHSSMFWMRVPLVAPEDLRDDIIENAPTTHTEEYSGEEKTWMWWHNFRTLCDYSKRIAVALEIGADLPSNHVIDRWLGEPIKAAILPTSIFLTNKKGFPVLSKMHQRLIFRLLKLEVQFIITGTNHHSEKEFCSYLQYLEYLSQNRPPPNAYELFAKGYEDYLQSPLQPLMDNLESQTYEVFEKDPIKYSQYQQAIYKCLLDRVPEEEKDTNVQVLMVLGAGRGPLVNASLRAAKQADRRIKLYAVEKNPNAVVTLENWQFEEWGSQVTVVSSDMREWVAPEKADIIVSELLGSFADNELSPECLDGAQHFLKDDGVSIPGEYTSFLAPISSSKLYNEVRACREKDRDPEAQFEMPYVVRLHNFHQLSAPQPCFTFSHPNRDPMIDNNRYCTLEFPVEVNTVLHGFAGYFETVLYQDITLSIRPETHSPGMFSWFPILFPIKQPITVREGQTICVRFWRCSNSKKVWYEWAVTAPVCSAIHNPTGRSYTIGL
PRMT5-MEP50, sequence (Q9BQA1 whole entry partner): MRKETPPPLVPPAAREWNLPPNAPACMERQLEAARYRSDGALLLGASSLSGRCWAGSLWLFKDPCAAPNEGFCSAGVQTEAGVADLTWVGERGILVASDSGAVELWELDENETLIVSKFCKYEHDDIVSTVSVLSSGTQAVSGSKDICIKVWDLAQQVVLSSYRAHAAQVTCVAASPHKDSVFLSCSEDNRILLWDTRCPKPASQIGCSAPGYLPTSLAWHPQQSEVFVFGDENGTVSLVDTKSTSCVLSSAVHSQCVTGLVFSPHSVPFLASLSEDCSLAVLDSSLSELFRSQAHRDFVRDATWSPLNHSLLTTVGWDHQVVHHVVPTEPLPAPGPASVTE
METTL3/METTL14, sequence (Q86U44 whole entry, species assumed): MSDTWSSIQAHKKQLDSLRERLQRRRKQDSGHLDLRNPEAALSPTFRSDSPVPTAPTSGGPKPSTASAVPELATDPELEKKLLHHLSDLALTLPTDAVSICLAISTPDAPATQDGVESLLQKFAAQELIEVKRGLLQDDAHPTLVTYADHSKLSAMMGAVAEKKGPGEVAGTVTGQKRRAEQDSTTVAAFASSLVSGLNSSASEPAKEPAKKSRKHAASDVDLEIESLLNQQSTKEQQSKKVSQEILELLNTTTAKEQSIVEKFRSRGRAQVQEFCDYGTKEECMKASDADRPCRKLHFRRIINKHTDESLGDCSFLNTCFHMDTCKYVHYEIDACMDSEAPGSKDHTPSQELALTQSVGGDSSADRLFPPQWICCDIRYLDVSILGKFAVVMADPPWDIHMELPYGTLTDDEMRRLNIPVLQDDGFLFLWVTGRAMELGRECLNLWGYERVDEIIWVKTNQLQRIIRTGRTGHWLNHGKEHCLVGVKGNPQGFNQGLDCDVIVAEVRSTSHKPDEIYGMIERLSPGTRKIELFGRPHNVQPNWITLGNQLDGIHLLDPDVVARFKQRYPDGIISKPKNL
METTL3/METTL14, sequence (Q9HCE5 whole entry partner, species assumed): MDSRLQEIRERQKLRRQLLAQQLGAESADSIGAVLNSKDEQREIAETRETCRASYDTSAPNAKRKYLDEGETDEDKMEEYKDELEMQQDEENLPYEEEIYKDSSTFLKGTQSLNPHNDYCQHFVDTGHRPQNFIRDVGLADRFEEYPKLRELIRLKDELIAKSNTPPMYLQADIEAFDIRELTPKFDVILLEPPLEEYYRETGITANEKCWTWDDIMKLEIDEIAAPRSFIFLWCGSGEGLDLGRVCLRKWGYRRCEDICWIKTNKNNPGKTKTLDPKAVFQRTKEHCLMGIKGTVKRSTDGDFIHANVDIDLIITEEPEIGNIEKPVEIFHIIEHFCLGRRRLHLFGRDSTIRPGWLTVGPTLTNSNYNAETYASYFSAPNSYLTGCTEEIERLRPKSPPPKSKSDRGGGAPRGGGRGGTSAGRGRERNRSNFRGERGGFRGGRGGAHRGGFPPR

| SMILES | IC50 (METTL3/METTL14; [1]) [µM] | IC50 (METTL1/WDR4; [2]) [µM] | IC50 (PRMT5-MEP50; [3]) [µM] | IC50 (METTL1/WDR4; [4]) [µM] | IC50 (METTL3/METTL14; [5]) [µM] | IC50 (PRMT5-MEP50; [6]) [µM] |
| --- | --- | --- | --- | --- | --- | --- |
| Nc1ccc2ccc(OC[C@H]3O[C@H](n4ccc5c(N)ncnc54)[C@H](O)[C@@H]3O)cc2n1 [I-79] | > 1 | > 1 | 0.1 to 1 |  |  |  |
| CNc1ccc2ccc(CC[C@H]3C[C@@H](n4cc(C5CCOCC5)c5c(N)ncnc54)[C@H](O)[C@@H]3O)cc2n1 [I-58] | 0.01 to 0.1 | > 1 | < 0.01 |  |  |  |
| CNc1ncnc2c1ccn2[C@@H]1C[C@H](CCc2ccc3ccc(N)nc3c2)[C@@H](O)[C@H]1O [I-129] | > 1 | > 1 | < 0.01 |  |  |  |
| Nc1ccc2ccc(OC[C@H]3C[C@@H](n4ccc5c(NCCc6ccccc6)ncnc54)[C@H](O)[C@@H]3O)cc2n1 [I-91] | > 1 |  | < 0.01 | > 1 |  |  |
| Nc1ncnc2c1ccn2[C@@H]1C[C@H](CCc2ccc3[nH]c(=O)[nH]c3c2)[C@@H](O)[C@H]1O [I-93] | > 1 | > 1 | 0.01 to 0.1 |  |  |  |
| CCCNc1ncnc2c1ccn2[C@@H]1C[C@H](CCc2ccc3ccc(N)nc3c2)[C@@H](O)[C@H]1O [I-102] | > 1 | > 1 | < 0.01 |  |  |  |
| Nc1ccc2ccc(CC[C@H]3C[C@@H](n4cc([C@H]5CCOC5)c5c(N)ncnc54)[C@H](O)[C@@H]3O)cc2n1 [I-53] | 0.1 to 1 | > 1 | < 0.01 |  |  |  |
| Cc1cn([C@@H]2O[C@H](COc3ccc4ccc(N)nc4c3)[C@@H](O)[C@H]2O)c2ncnc(N)c12 [I-15] | > 1 | > 1 | 0.1 to 1 |  |  |  |
| CNc1ccc2ccc(OC[C@H]3O[C@@H](n4cc(Br)c5c(N)ncnc54)C[C@@H]3O)cc2n1 [I-47] | < 0.01 | > 1 | 0.1 to 1 |  |  |  |
| Cc1cn([C@@H]2O[C@H](COc3ccc4ccc(NCC5CC5)nc4c3)[C@@H](O)[C@H]2O)c2ncnc(N)c12 [I-20] | > 1 | > 1 | 0.1 to 1 |  |  |  |
| Nc1ncnc2c1ccn2[C@@H]1C[C@H](CCc2cccc(NC(=O)C3CC3)c2)[C@@H](O)[C@H]1O [I-96] | > 1 | > 1 | 0.1 to 1 |  |  |  |
| Nc1ncnc2c1ccn2[C@@H]1C[C@H](CCc2cccnc2)[C@@H](O)[C@H]1O [I-117] | > 1 | > 1 | 0.01 to 0.1 |  |  |  |
| Nc1ccc2ccc(CC[C@H]3C[C@@H](n4ccc5c(N)ncnc54)[C@H](O)[C@@H]3O)cc2n1 [I-138] | 0.1 to 1 | > 1 | < 0.01 |  |  |  |
| Nc1ncnc2c1ccn2[C@@H]1C[C@H](CCc2ccc3[nH]ccc3c2)[C@@H](O)[C@H]1O [I-92] | > 1 | > 1 | 0.1 to 1 |  |  |  |
| Nc1ccc2cc(CC[C@H]3C[C@@H](n4ccc5c(NCCc6ccccc6)ncnc54)[C@H](O)[C@@H]3O)ccc2n1 [I-97] | > 1 | > 1 | 0.1 to 1 |  |  |  |
| CNc1ccc2ccc(OC[C@H]3O[C@@H](n4cc(-c5cc(C)n(C)n5)c5c(N)ncnc54)[C@@H](F)[C@@H]3O)cc2n1 [I-147] |  |  |  | > 1 | 0.01 to 0.1 | > 1 |

| SMILES | IC50 (METTL3/METTL14; [1]) [µM] | IC50 (METTL1/WDR4; [2]) [µM] | IC50 (PRMT5-MEP50; [3]) [µM] | IC50 (METTL1/WDR4; [4]) [µM] | IC50 (METTL3/METTL14; [5]) [µM] | IC50 (PRMT5-MEP50; [6]) [µM] |
| --- | --- | --- | --- | --- | --- | --- |
| Nc1ncnc2c1ccn2[C@@H]1C[C@H](CCc2cnc3cccnc3c2)[C@@H](O)[C@H]1O [I-126] | > 1 | > 1 | < 0.01 |  |  |  |
| COc1cccc(CC[C@H]2C[C@@H](n3ccc4c(N)ncnc43)[C@H](O)[C@@H]2O)n1 [I-114] | > 1 | > 1 | > 1 |  |  |  |
| Nc1ncnc2c1ccn2[C@@H]1C[C@H](CCc2ccc3scnc3c2)[C@@H](O)[C@H]1O [I-104] | > 1 | > 1 | < 0.01 |  |  |  |
| Nc1ncnc2c1ccn2[C@@H]1C[C@H](CCc2cccc(=O)[nH]2)[C@@H](O)[C@H]1O [I-113] | > 1 | > 1 | 0.1 to 1 |  |  |  |
| Nc1ncnc2c1ccn2[C@@H]1C[C@H](CCc2ccc3ccc(NCc4ccccc4)nc3c2)[C@@H](O)[C@H]1O [I-121] | 0.1 to 1 | > 1 | < 0.01 |  |  |  |
| Cn1cc(-c2cn([C@@H]3C[C@H](CCc4ccc5ccc(N)nc5c4)[C@@H](O)[C@H]3O)c3ncnc(N)c23)cn1 [I-63] |  |  |  | > 1 | 0.1 to 1 | < 0.01 |
| CNc1ccc2cc(F)c(CC[C@H]3C[C@@H](n4ccc5c(N)ncnc54)[C@H](O)[C@@H]3O)cc2n1 [I-87] | 0.01 to 0.1 | > 1 | < 0.01 |  |  |  |
| Nc1ncnc2c1ccn2[C@@H]1C[C@H](CCc2ccc3[nH]ncc3c2)[C@@H](O)[C@H]1O [I-106] | > 1 | > 1 | 0.1 to 1 |  |  |  |
| Nc1ccc2ccc(OC[C@H]3C[C@@H](n4ccc5c(N)ncnc54)[C@H](O)[C@@H]3O)cc2n1 [I-124] | 0.1 to 1 | > 1 | < 0.01 |  |  |  |
| CCCC(=O)c1cn([C@@H]2O[C@H](COc3ccc4ccc(NC)nc4c3)[C@@H](O)[C@@H]2F)c2ncnc(N)c12 [I-146] |  |  |  | > 1 | 0.01 to 0.1 | > 1 |
| CNc1ccc2ccc(OC[C@H]3O[C@@H](n4cc(C)c5c(N)ncnc54)[C@H](O)[C@@H]3O)cc2n1 [I-22] | > 1 | > 1 | 0.1 to 1 |  |  |  |
| Nc1ncnc2c1ccn2[C@@H]1C[C@H](CCc2ccc3ccc(Nc4ccccc4)nc3c2)[C@@H](O)[C@H]1O [I-122] | > 1 | > 1 | < 0.01 |  |  |  |
| Nc1ccc2ccc(CO[C@H]3C[C@@H](n4ccc5c(N)ncnc54)[C@H](O)[C@@H]3O)cc2n1 [I-139] | < 0.01 | > 1 | < 0.01 |  |  |  |
| Nc1ncnc2c1ccn2[C@@H]1C[C@H](CCc2ccc3cncnc3c2)[C@@H](O)[C@H]1O [I-127] | > 1 | > 1 | < 0.01 |  |  |  |
| Nc1cc2cc(CC[C@H]3C[C@@H](n4ccc5c(N)ncnc54)[C@H](O)[C@@H]3O)ccc2cn1 [I-100] | > 1 | > 1 | 0.01 to 0.1 |  |  |  |
